Source: patent publication EP0252380B1, “Antibiotic LL-E19020 alpha and beta” (AMERICAN CYANAMID COMPANY, priority 1986, dated 1988)
In brackets after ≈: the same amount, converted by molar mass. Marks after values point to notes of the source that are not given here.

Experiments:
Staphylococcus aureus = test: In vitro antibacterial activity, standard agar dilution method (Table II); type: cell-based
[1] = tested on: Staphylococcus epidermidis; test: as above; type: cell-based; details: strain IO-83-58
Streptococcus pneumoniae = test: as above; type: cell-based
Escherichia coli [2] = test: as above; type: cell-based; details: strain 311
Klebsiella pneumoniae = test: as above; type: cell-based; details: strain AD
Morganella morganii = test: as above; type: cell-based; details: strain VGH-84-71
Pseudomonas aeruginosa = test: as above; type: cell-based; details: strain 12-4-4
Peptococcus magnus = test: as above; type: cell-based
Streptococcus uberis = test: Minimum inhibitory concentration by agar dilution (Table VI); type: cell-based; details: 1 strain tested
Escherichia coli [3] = test: as above; type: cell-based; details: 2 strains tested
Pasteurella haemolytica = test: as above; type: cell-based; details: 3 strains tested
Treponema hyodysenteriae [4] = test: Minimum inhibitory concentration by microdilution (Table VII); type: cell-based
[5] = Growth of chickens and efficiency of feed utilization (Example 5, Table VIII); type: in vivo, Peterson X Arbor Acres chicks; details: for Feed/Gain 0-1 Wk: control 1.21; for Feed/Gain 0-2 Wk: control 1.33; for Feed/Gain 0-3 Wk: control 1.43
Experimental: In this test one day old Peterson X Arbor Acres chicks are sorted into equal weight groups of 5 males and 5 females per cage. Cages are randomized to treatment groups with six replicates per treatment. Each compound is tested at 50 and 100 ppm in the diet and evaluated against chicks receiving a non-medicated diet.
The chicks are weighed at the start of the test and at 1 week intervals thereafter to the conclusion of said test. The chicks are given free access to feed and water during the entire test period. The feed is weighed when provided to the chicks and excess feed collected and weighed when the cages are cleaned.
The poultry diet employed in the test is as follows: Vitamin-amino acid premix 0.5% Trace minerals 0.1% Sodium chloride 0.3% Dicalcium phosphate 1.2% Ground limestone 0.5% Stabilized fat 4.0% Dehydrated alfalfa, 17% protein 2.0% Corn gluten meal, 41% protein 5.0% Menhaden fish meal, 60% protein 5.0% Soybean oil meal, 44% protein 30.0% Ground yellow corn, fine to 100.0%
The vitamin-amino acid premix in the above feed composition is prepared from the following formulation. The expressions of quantity relate to units per kilogram of the finished feed compositions. Butylated hydroxy toluene 125.0 mg d1-Methionine 500.0 mg Vitamin A 3300.0 I.U. Vitamin D₃ 1100.0 I.C.U. Riboflavin 4.4 mg Vitamin E 2.2 I.U. Niacin 27.5 mg Panthothenic acid 8.8 mg Choline chloride 500.0 mg Folic acid 1.43 mg Menadione sodium bisulfate 1.1 mg Vitamin B₁₂ 11.0 mcg Ground yellow corn, fine to […]

[6] = Weight gain and feed efficiency of broiler chicks (Example 6, Table IX); type: in vivo, Peterson X Arbor Acres chicks; details: for Wg Gains And Feed Efficiency % Improvement Over Controls FEED/GAIN: control 1.41
[7] = tested on: In Vitro Rumen Fermentation; test: Propionate enhancement activity during in vitro rumen fermentation; type: cell-based, steer; details: for A:P: acetate/propionate ratio
Experimental: The drugs are dissolved or suspended (sonified if necessary) in a 0.1% Tween 20-ethanol-water vehicle and 25-50 ul is added to the incubation. The reaction is terminated with 6N HCl and centrifuged at 20,000 x g. Alliquots of the superinatant are analyzed for volatile fatty acid (VFA) content by gas-liquid chromatography.

[8] = tested on: Staphylococcus aureus Smith; test: In vivo antibacterial activity in infected mice (Table III); details: S. aureus Smith, 30 minutes before infection
Treponema hyodysenteriae [9] = test: T. hyodysenteriae disk test (primary in vitro disk diffusion test); details: disks soaked in 2.5 mg/ml solution, zones of inhibited hemolysis
[10] = tested on: Mycoplasma gallisepticum "R"; test: Minimum inhibitory concentration assay for Mycoplasma gallisepticum (microdilution, Table VII); details: microdilution; "R" strain

## C/C=C\C=C\[C@@H]1O[C@](O)([C@H](CO[C@H]2C[C@@H](OC)[C@@H](O[C@@H]3C[C@@H](OC)[C@@H](O[C@H]4C[C@H](OC)[C@H](O)[C@H](C)O4)[C@H](C)O3)[C@@H](C)O2)C(=O)NC/C=C/C=C(\C)[C@@H](OC)[C@H](C)[C@H]2C[C@H](O)[C@H](/C=C/C=C/C=C/C(=O)O)O2)[C@H](OC(=O)Cc2ccccc2)[C@H](O)C1(C)C [LL-E19020 alpha]
Staphylococcus aureus; strain ATCC 25923
  Minimal Inhibitory Concentration: > 256 µg/mL
Staphylococcus aureus; strain CMC-83-127
  Minimal Inhibitory Concentration: > 256 µg/mL
Staphylococcus aureus; strain CMC-83-131
  Minimal Inhibitory Concentration: > 256 µg/mL
Staphylococcus aureus; strain CMC-83-132
  Minimal Inhibitory Concentration: > 256 µg/mL
Staphylococcus aureus; strain SSC-82-57
  Minimal Inhibitory Concentration: > 256 µg/mL
Staphylococcus aureus; strain Smith
  Minimal Inhibitory Concentration: 128 µg/mL
Staphylococcus aureus; strain VGH-84-45
  Minimal Inhibitory Concentration: > 256 µg/mL
[1]
  Minimal Inhibitory Concentration: > 256 µg/mL
Streptococcus pneumoniae; strain K-84-21
  Minimal Inhibitory Concentration: 1 µg/mL
Streptococcus pneumoniae; strain SVI
  Minimal Inhibitory Concentration: 1 µg/mL
Streptococcus pneumoniae; strain VGH-84-56
  Minimal Inhibitory Concentration: 1 µg/mL
Streptococcus pneumoniae; strain VGH-84-57
  Minimal Inhibitory Concentration: 2 µg/mL
Streptococcus pneumoniae; strain VGH-84-58
  Minimal Inhibitory Concentration: 0.25 µg/mL
Streptococcus pneumoniae; strain VGH-84-59
  Minimal Inhibitory Concentration: 0.25 µg/mL
Escherichia coli [2]
  Minimal Inhibitory Concentration: >256 µg/mL
Klebsiella pneumoniae
  Minimal Inhibitory Concentration: >256 µg/mL
Morganella morganii
  Minimal Inhibitory Concentration: >256 µg/mL
Pseudomonas aeruginosa
  Minimal Inhibitory Concentration: >256 µg/mL
Peptococcus magnus; strain ATCC 14956
  Minimal Inhibitory Concentration: 0.12 µg/mL
Peptococcus magnus; strain ATCC 29328
  Minimal Inhibitory Concentration: 0.12 µg/mL
Streptococcus uberis
  MIC: 8 µg/mL (≈ 6.52 µM)
Escherichia coli [3]
  MIC: ≧ 256 µg/ml
Pasteurella haemolytica
  MIC: 16 µg/mL (≈ 13 µM)
Treponema hyodysenteriae [4]; strain B78 (ATCC 27164)
  MIC: 1 µg/mL (≈ 0.815 µM)
Treponema hyodysenteriae [4]; strain B204 (ATCC 31212)
  MIC: 1 µg/mL (≈ 0.815 µM)
[5]; 50 ppm in the diet
  Weight Gains % Improvement over Controls 0-1 Wk: 12.5** %
  Weight Gains % Improvement over Controls 0-2 Wk: 4.1* %
  Weight Gains % Improvement over Controls 0-3 Wk: 4.2* %
  Feed/Gain 0-1 Wk: 1.11*
  Feed/Gain 0-2 Wk: 1.30
  Feed/Gain 0-3 Wk: 1.38
[5]; 100 ppm in the diet
  Weight Gains % Improvement over Controls 0-1 Wk: 8.9* %
  Weight Gains % Improvement over Controls 0-2 Wk: 6.3** %
  Weight Gains % Improvement over Controls 0-3 Wk: 6.1** %
  Feed/Gain 0-1 Wk: 1.12*
  Feed/Gain 0-2 Wk: 1.27
  Feed/Gain 0-3 Wk: 1.39
[5]; over unmedicated controls
  efficiency of feed utilization (statement in words): increased the efficiency of feed utilization
  weight gains of chicks (statement in words): improved the weight gains of chicks
[6]; 12.5 PPM in diet
  Wg Gains And Feed Efficiency % Improvement Over Controls COMBINED: 3.8%
  Wg Gains And Feed Efficiency % Improvement Over Controls FEMALES: 7.8* %
  Wg Gains And Feed Efficiency % Improvement Over Controls MALES: 0%
  Wg Gains And Feed Efficiency % Improvement Over Controls FEED/GAIN: 1.36*
[6]; 25 PPM in diet
  Wg Gains And Feed Efficiency % Improvement Over Controls COMBINED: 5.5%
  Wg Gains And Feed Efficiency % Improvement Over Controls FEMALES: 4.8%
  Wg Gains And Feed Efficiency % Improvement Over Controls MALES: 5.9%
  Wg Gains And Feed Efficiency % Improvement Over Controls FEED/GAIN: 1.34**
[6]; 50 PPM in diet
  Wg Gains And Feed Efficiency % Improvement Over Controls COMBINED: 6.6* %
  Wg Gains And Feed Efficiency % Improvement Over Controls FEMALES: 10.5** %
  Wg Gains And Feed Efficiency % Improvement Over Controls MALES: 3.6%
  Wg Gains And Feed Efficiency % Improvement Over Controls FEED/GAIN: 1.34**
[6]; 100 PPM in diet
  Wg Gains And Feed Efficiency % Improvement Over Controls COMBINED: 2.9%
  Wg Gains And Feed Efficiency % Improvement Over Controls FEMALES: 3.2%
  Wg Gains And Feed Efficiency % Improvement Over Controls MALES: 2.9%
  Wg Gains And Feed Efficiency % Improvement Over Controls FEED/GAIN: 1.34**
[6]; 200 PPM in diet
  Wg Gains And Feed Efficiency % Improvement Over Controls COMBINED: 5.7%
  Wg Gains And Feed Efficiency % Improvement Over Controls FEMALES: 7.1%
  Wg Gains And Feed Efficiency % Improvement Over Controls MALES: 4.5%
  Wg Gains And Feed Efficiency % Improvement Over Controls FEED/GAIN: 1.32**
[7]; Table X, 0.008 PPM, control 2.65
  A:P: 2.66
[7]; Table X, 0.008 PPM, control 159.4
  TOTAL VFA: 161.2 mM
[7]; Table X, 0.031 PPM, control 2.65
  A:P: 2.43
[7]; Table X, 0.031 PPM, control 159.4
  TOTAL VFA: 158.4 mM
[7]; Table X, 0.125 PPM, control 2.65
  A:P: 2.14
[7]; Table X, 0.125 PPM, control 159.4
  TOTAL VFA: 159.2 mM
[7]; Table X, 0.500 PPM, control 2.65
  A:P: 2.27
[7]; Table X, 0.500 PPM, control 159.4
  TOTAL VFA: 146.9 mM
[7]; Table X, 2.000 PPM, control 2.65
  A:P: 2.21
[7]; Table X, 2.000 PPM, control 159.4
  TOTAL VFA: 150.5 mM
[7]; Table XI, 0.015 PPM, control 2.19
  A:P: 2.05
[7]; Table XI, 0.015 PPM, control 125.3
  TOTAL VFA: 125.1 mM
[7]; Table XI, 0.031 PPM, control 2.19
  A:P: 1.96
[7]; Table XI, 0.031 PPM, control 125.3
  TOTAL VFA: 126.5 mM
[7]; Table XI, 0.062 PPM, control 2.19
  A:P: 1.90
[7]; Table XI, 0.062 PPM, control 125.3
  TOTAL VFA: 126.3 mM
[7]; Table XI, 0.125 PPM, control 2.19
  A:P: 1.92
[7]; Table XI, 0.125 PPM, control 125.3
  TOTAL VFA: 121.9 mM
[7]; Table XI, 0.250 PPM, control 2.19
  A:P: 1.85
[7]; Table XI, 0.250 PPM, control 125.3
  TOTAL VFA: 121.1 mM
[8]; single subcutaneous dose 4 mg/kg
  Survival Ratios 7 Days After Infection: 2/5
[8]; single subcutaneous dose 16 mg/kg
  Survival Ratios 7 Days After Infection: 3/5
[8]; single subcutaneous dose 64 mg/kg
  Survival Ratios 7 Days After Infection: 3/5
[8]; single subcutaneous dose 256 mg/kg
  Survival Ratios 7 Days After Infection: 3/5
Treponema hyodysenteriae [9]; strain B78 (ATCC 27164)
  ZONE SIZE: 0 mm
Treponema hyodysenteriae [9]; strain B204 (ATCC 31212)
  ZONE SIZE: 15 mm
[10]
  MIC: 0.125 µg/mL (≈ 0.102 µM)
